Experimental data from patent US7618988B2, “Use of substituted aminomethyl chromans” (Merck Patentgesellschaft, priority 2001, dated 2009).
pEC50, pIC50: −log10 of the molar value.

Key:
[1] = target: dopamine D4 receptors (Homo sapiens, UniProt P21917); assay: dopamine D4 receptor radioligand binding; conditions: in vitro radioligand binding
Text: (§1) The affinity to the 5-HT1A receptor can be determined in vitro by radioligand binding experiments according to Cossery J M et al. (Eur. J. Pharmacol. 1987; 140: 143-155). The functional agonistic properties at the 5HT1A receptor can be determined in vitro in the GTP-gamma-S test (Newman-Tancredi A et al., Eur. J. Pharmacol.1996; 307: 107-111). A standard in vivo animal model to test for the 5HT1A agonistic properties is the ultrasonic vocalization test in rats (e.g. deFry J et al., Eur. J. Pharmacol. 1993; 249: 331-339; Sanchez C, Behav. Pharmacol. 1993; 4: 269-277). The affinity for dopamine D4 receptors can be determined in vitro by radioligand binding experiments according to Klokow M et al. (Drug Res. 1986; 36: 197-200).

[2] = target: 5-HT1A receptor (UniProt P19327); assay: 5-HT1A receptor radioligand binding; conditions: in vitro radioligand binding; read-out: IC50, binding to 5HT1A receptors
Text: as §1

[3] = target: 5HT1A receptor (Homo sapiens, UniProt P08908); assay: GTP-gamma-S test (5HT1A agonism); assay type: biochemical; conditions: in vitro, 5HT1A agonistic properties; read-out: ED50 in GTP-gamma-S test
Chain of 5HT1A receptor (P08908 whole entry): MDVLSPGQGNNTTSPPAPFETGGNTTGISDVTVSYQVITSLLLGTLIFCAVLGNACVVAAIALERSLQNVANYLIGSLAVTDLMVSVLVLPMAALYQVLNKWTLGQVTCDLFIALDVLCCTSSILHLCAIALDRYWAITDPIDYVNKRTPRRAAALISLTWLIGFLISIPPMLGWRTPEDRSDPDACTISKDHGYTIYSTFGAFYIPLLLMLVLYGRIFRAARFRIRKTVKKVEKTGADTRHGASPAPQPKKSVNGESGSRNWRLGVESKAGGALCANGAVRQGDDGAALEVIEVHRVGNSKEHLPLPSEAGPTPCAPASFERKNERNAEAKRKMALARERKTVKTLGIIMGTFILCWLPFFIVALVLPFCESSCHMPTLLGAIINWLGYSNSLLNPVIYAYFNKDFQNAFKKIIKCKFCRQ
Text: as §1

[4] = tested on: rats; assay: systemic 3-nitropropionic acid (3-NP) model in rats; assay type: in vivo, rat
Experimental: A typical animal model is the systemic 3-nitropropionic acid (3-NP) model in rats according to C. V. Borlongan et al., Brain Res., 1995; 697: 254-257. Rats are treated with injections of the selective striatal neurotoxin 3-NP i.p. every fourth day (C. V. Borlongan et al., Brain Res. Protocols, 1997; 1: 253-257). After two injections of 3-NP, rats display nocturnal hyperactivity reflecting symptoms of early Huntington's disease, whereas rats treated with four injections of 3-NP display nocturnal akinesia (hypoactivity) reflecting symptoms of late Huntington's disease. Nocturnal activity is automatically measured in conventional acitivity cages by infrared beams. (2R,4R)-2-({[5-(4-fluorophenyl)-pyridin-3ylmethyl]-amino}-methyl)-chroman-4-ol or a pharmaceutical acceptable salt or solvate thereof reduce both the nocturnal hyperactivity and akinesia.

[5] = tested on: cataleptic rat; assay: reversal of catalepsy in rats; assay type: in vivo; conditions: Rattus norvegicus, sc, subcutaneous, read-out: ED50 (calculated dose to reverse catalepsy by 50%)
Experimental: R represents hydrogen or a hydroxyl protecting group, and their optical isomers and pharmaceutically acceptable salts, in particular 2-({[5-(4-fluorophenyl)-pyridin-3ylmethyl]-amino}-methyl)-chroman-4-ol or an optical isomer or a physiologically acceptable salt or solvate thereof, excert an extraordinary potency in reversing catalepsy. Extrapyramidal motor side effects in e.g. rodents are measured by the ability of a drug to induce catalepsy. Catalepsy is defined as a state where an animal continues to remain in an unnormal (nonphysiological ‘uncomfortable’) posture for a long time (e.g.: M. E. Stanley and S. D. Glick, Neuropharmacology, 1996; 15: 393-394; C. J. E. Niemegeers and P. Janssen, Life Sci., 1979, […]). For example, if a hindpaw of a rat is placed on an elevated level, e.g. a platform elevated 3 cm above ground level, a normal rat immediately withdraws the hindpaw from the platform to the ground level. A cataleptic rat remains in this unnatural posture even for minutes.

[6] = tested on: rats; assay: neuroleptics-induced muscle rigidity in rats; assay type: in vivo, rat; conditions: enhanced by haloperidol
Text: A typical animal model is neuroleptics-induced muscle rigidity in rats according to S. Wolfarth et al., Arch. Pharmacol. 1992; 345: 209-212. Rats are challenged with the conventional neuroleptic drug haloperidol which enhances muscle tone. Muscle tone is electromechanically measured as the resistence to passive flexion and extension of the hind limb.

[7] = tested on: Parkinsonian cynomolgus monkey; assay: MPTP Parkinsonian cynomolgus monkey, parkinsonian symptoms (Laval University Disability Scale); assay type: in vivo
Text: A typical animal model for idiopathic Parkinson's disease is the Parkinsonian cynomolgus monkey according to P. J. Blanchet et al., Exp. Neurology 1998; 153: 214-222. Monkeys render parkinsonian by repeated injections of 1-methyl-4-phenyl-1,2,3,6-tetrahydropyridine (MPTP). Parkinsonian symptoms are qualitatively assessed by the use of the Laval University Disability Scale (B. Gomez-Mancilla et al., 1993; Mov. Disord. 8: 144-150) measuring the following symptoms: posture, mobility, climbing, gait, holding food, vocalizing, grooming, social interaction.

[8] = tested on: neuroleptics sensitized monkey; assay: neuroleptics sensitized monkey; assay type: in vivo; conditions: haloperidol challenge, scoring system
Text: Another typical animal model is the neuroleptics sensitized monkey according to D. E. Casey, Psychopharmacology, 1996; 124: 134-140. Monkeys treated repeatedly with conventional neuroleptics are highly sensitive to a subsequent challenge dose of neuroleptic drugs. When challenged, the monkeys immediately show extrapyramidal motor side effects such as dystonia, dyskinesias, akathisia, and bradykinesia which are rated by a scoring system. The conventional neuroleptic drug haloperidol is given as a challenge.

[9] = tested on: Pietrain pig; assay: Campus Syndrome in the Pietrain pig (tremor); conditions: in vivo
Text: Typical genetic models in mutant animals are the Campus Syndrome in the Pietrain pig according to A. Richter et al. (Exp. Neurology, 1995; 134: 205-213) or the Weaver mutant mouse according to J. R. Simon and B. Ghetti (Mol. Neurobiol., 1994; 9: 183-189). In the Campus Syndrome model, these mutant pigs show a high-frequency tremor when standing and during locomotion, but not while lying at rest. Assessment of tremor is made by accelerometric recording. In the Weaver mutant mouse, degenerative cerebellar atrophy is […] in association with tremor, gait instability, and toppling over the sides after a few steps.

Chain of dopamine D4 receptors (P21917 whole entry): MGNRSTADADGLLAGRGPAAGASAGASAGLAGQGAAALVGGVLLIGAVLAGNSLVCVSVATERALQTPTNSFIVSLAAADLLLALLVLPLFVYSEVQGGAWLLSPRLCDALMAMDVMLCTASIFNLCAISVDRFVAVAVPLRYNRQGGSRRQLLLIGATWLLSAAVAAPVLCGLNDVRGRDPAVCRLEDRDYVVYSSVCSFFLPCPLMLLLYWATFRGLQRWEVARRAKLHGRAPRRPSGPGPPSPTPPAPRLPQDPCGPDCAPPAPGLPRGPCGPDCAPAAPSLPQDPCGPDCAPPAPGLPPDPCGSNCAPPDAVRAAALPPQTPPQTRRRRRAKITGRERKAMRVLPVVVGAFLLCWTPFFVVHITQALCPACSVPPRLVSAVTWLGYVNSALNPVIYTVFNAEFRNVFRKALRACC

## O[C@@H]1C[C@H](CNCc2cncc(-c3ccc(F)cc3)c2)Oc2ccccc21 [(2R,4R)-2-({[5-(4-fluorophenyl)-pyridin-3ylmethyl]-amino}-methyl)-chroman-4-ol]
[1]
  pIC50: 7.92
[2]
  pIC50: 8.00
[3]
  pEC50: 7.48
[4]; after four injections of 3-NP
  nocturnal akinesia: reduce
[4]; after two injections of 3-NP
  nocturnal hyperactivity: reduce
[5]
  ED50: ~2 mg/kg
[6]
  muscle tone: decrease the muscle tone enhanced by haloperidol
[7]; Laval University Disability Scale
  parkinsonian symptoms: reduce all the parkinsonian symptoms
[7]; cynomolgus monkey, in vivo
  total activity: increased total activity
[8]
  extrapyramidal motor side effects: dose-dependently reduce the extrapyramidal motor side effects
[9]
  tremor when standing and during locomotion: reduce disabling tremor when standing and during locomotion
